Data on 24 molecules can be found in PubChem BioAssay (NCI).

Among the test systems are NCI/ADR-RES ovarian; HS 578T breast; MCF7 breast.
Common to all, as to assay: NCI tumour cell line growth inhibition, 48 h

Where “and” joins values, the source holds several entries; their conditions need not be identical. Identical values can stand only once.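 Results reflect a 48-hour exposure of cells in 96-well plates to compound at five concentrations. GI50: concentration for 50% inhibition of growth. TGI is the concentration that stops growth completely.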 Some results are limits rather than exact numbers.

As to `CCOC(=O)C#Cc1c(CC(=O)OCC)nnn1[C@H]1O[C@@H](CO)[C@@H]2OC(C)(C)O[C@@H]21`, the GI50 was 11.5 µM with NCI/ADR-RES ovarian, 25.9 µM in the experiment with HS 578T breast and 3.15 µM in the experiment on MCF7 breast. In addition, the TGI in the experiment with NCI/ADR-RES ovarian came out at 36.5 µM; in the experiment on HS 578T breast, 72.2 µM; in the experiment on MCF7 breast, 14.9 µM.

Consider `Clc1nc(Cl)c(Cc2ccccc2)c(Cl)n1`, for which the TGI with NCI/ADR-RES ovarian was above 100 µM; in the experiment on HS 578T breast it was 19.9 µM; in the experiment with MCF7 breast, 21.4 µM.

For `CN(C)CCNC(=O)c1cc2c3ccccc3[nH]c2c2ncccc12`, the GI50 is 22.5 µM with NCI/ADR-RES ovarian, 3.57 µM in the experiment with HS 578T breast and 4.53 µM in the experiment with MCF7 breast. Also, the TGI was above 100 µM with NCI/ADR-RES ovarian, 28.1 µM in the experiment with HS 578T breast and 20.9 µM in the experiment with MCF7 breast.

For `O=C(N/N=C\c1ccc(N(CCCl)CCCl)cc1Cl)c1cccnc1`, the values for the GI50 in the experiment on NCI/ADR-RES ovarian, with HS 578T breast and with MCF7 breast were 19.6 µM, 31.7 µM and 1.39 µM, respectively. The TGI with NCI/ADR-RES ovarian was above 94.3 µM; in the experiment with HS 578T breast, above 94 µM; in the experiment on MCF7 breast, above 82.6 µM.

As to `COCCNC(=O)c1ccc(-c2nc3ccc4[nH]ncc4c3c3c2CCCC3)cc1`, the GI50 was 4.29 µM with NCI/ADR-RES ovarian, 0.88 µM in the experiment with HS 578T breast and 2.52 µM in the experiment with MCF7 breast. Further, the TGI in the experiment on NCI/ADR-RES ovarian is above 100 µM; in the experiment with HS 578T breast, 4.68 µM; with MCF7 breast, 20.4 µM.

With `CCCCCN(CCCCC)CC(O)c1cc2c(c3ccccc13)CCCC2` (stereo not given), the GI50 in the experiment with NCI/ADR-RES ovarian was 6.44 µM and 12.3 µM; in the experiment with HS 578T breast it was 8.51 µM; with MCF7 breast, 3.65 µM and 4.63 µM. For the same molecule, the TGI in the experiment with NCI/ADR-RES ovarian was 20.1 µM and 27.5 µM; with HS 578T breast it was 23.9 µM; in the experiment with MCF7 breast, 14.1 µM and 16.7 µM.

Turning to `N#Cc1nc2cc(F)c(F)cc2nc1-c1ccc(Cl)cc1`, the GI50 in the experiment on NCI/ADR-RES ovarian was 10.3 µM; with HS 578T breast, 1.72 µM; with MCF7 breast, 13.1 µM. Moreover, the TGI in the experiment on NCI/ADR-RES ovarian was above 81.1 µM; with HS 578T breast, 4.43 µM; in the experiment on MCF7 breast, above 100 µM.

On to `COc1cc(-c2oc3c(OC)c(O)c(OC)c(O)c3c(=O)c2OC)ccc1O`, for which the TGI was above 100 µM in the experiment on NCI/ADR-RES ovarian, 40.1 µM in the experiment on HS 578T breast and above 100 µM in the experiment with MCF7 breast.

Take `COc1ccc2c(c1)OC(N)=C(C#N)C2c1ccc(F)cc1` (stereo not given): the values for the GI50 in the experiment with NCI/ADR-RES ovarian, in the experiment on HS 578T breast and with MCF7 breast were 0.516 µM, 3.84 µM and 0.522 µM, respectively. Besides, the TGI with NCI/ADR-RES ovarian, in the experiment on HS 578T breast and with MCF7 breast was above 100 µM in each case.

As to `Oc1c(N=Nc2ccccc2)c2ccccc2c2ccc3ccccc3c12`, the TGI in the experiment with NCI/ADR-RES ovarian, in the experiment with HS 578T breast and in the experiment with MCF7 breast was above 100 µM in each case.

In the case of `O=Cc1ccc(O)c2ncccc12`, the GI50 was 2.2 µM in the experiment on NCI/ADR-RES ovarian, 7.05 µM in the experiment with HS 578T breast and 2.45 µM with MCF7 breast. The TGI in the experiment with NCI/ADR-RES ovarian was above 29.4 µM; with HS 578T breast, above 53.7 µM; in the experiment on MCF7 breast, 8.11 µM.

Regarding `C/C=C/C=C\C1OC(O)([C@H](CC)C(=O)NC/C=C/C=C(\C)[C@H](OC)C(C)C2OC(\C=C/C=C/C=C(\C)C(=O)c3c(O)ccn(C)c3=O)[C@H](O)[C@@H]2O)C(O)C(O)C1(C)C` (stereo not given in full), the TGI in the experiment on NCI/ADR-RES ovarian, in the experiment with HS 578T breast and with MCF7 breast was above 100 µM each time.

With `CCOC1C=CCCO1` (stereo not given), the TGI with NCI/ADR-RES ovarian, with HS 578T breast and in the experiment with MCF7 breast was above 100 µM each time.

`N#C[S-].[Au+].c1ccc(CN2[CH-]N(Cc3ccccc3)C(c3ccccc3)=C2c2ccccc2)cc1`: in the experiment with HS 578T breast, the GI50 was 0.744 µM and the TGI is 4.62 µM.

For the molecule `Cc1nn(-c2nc3ccccc3[nH]2)c2c1C(c1ccc3c(c1)OCO3)CC(=O)N2` (stereo not given), the GI50 with NCI/ADR-RES ovarian was 4.43 µM; in the experiment on HS 578T breast it was 2.93 µM; in the experiment with MCF7 breast, 2.98 µM. In addition, the TGI was above 100 µM in the experiment with NCI/ADR-RES ovarian, 13.5 µM with HS 578T breast and above 30.1 µM with MCF7 breast.

In the case of `COc1cc(/C=C/C(=O)c2c(C)n([O-])c3ccc(Cl)cc3[n+]2=O)cc(OC)c1OC`, the GI50 in the experiment with NCI/ADR-RES ovarian is 90.9 µM; in the experiment on HS 578T breast, 12.4 µM; with MCF7 breast it was 57 µM. Also, the TGI in the experiment on NCI/ADR-RES ovarian was above 100 µM; in the experiment with HS 578T breast it was 64.3 µM; with MCF7 breast it was above 100 µM.

Regarding `Clc1ccc2c(c1)-c1ccccc1C1=NCCN12`, the GI50 in the experiment with NCI/ADR-RES ovarian was 1.6 µM; in the experiment with HS 578T breast, 2.92 µM; in the experiment on MCF7 breast, 2.18 µM. Also, the TGI in the experiment on NCI/ADR-RES ovarian was 4.8 µM; in the experiment with HS 578T breast, 11.8 µM; in the experiment on MCF7 breast, 8.58 µM.

For `O=C1/C(=C/c2ccc(Cl)cc2)COc2ccc(O)c(O)c21`, the GI50 with NCI/ADR-RES ovarian is 1.6 µM; with HS 578T breast it was 1.8 µM; in the experiment on MCF7 breast it was 0.332 µM. For the same molecule, the TGI in the experiment with NCI/ADR-RES ovarian stood at 15.8 µM; in the experiment with HS 578T breast, 7.02 µM; in the experiment on MCF7 breast, 2.15 µM.

Consider `COC(=O)[C@@H](C)C[C@H](Cc1ccccc1)NC(=O)c1csc([C@@H](C[C@H](C(C)C)N(C)C(=O)C2(NC(=O)[C@H]3CCCCN3C)CC2)OC(C)=O)n1`, for which the GI50 was above 33.3 µM with NCI/ADR-RES ovarian; 0.0191 µM in the experiment with HS 578T breast; 0.000612 µM and 0.00333 µM with MCF7 breast. Moreover, the TGI in the experiment on NCI/ADR-RES ovarian and with MCF7 breast was above 33.3 µM in each case.

Consider `C[C@@H]1C[C@@]2(O[C@@H]2C)C(=O)O[C@@H]2CCN3CC=C(COC(=O)[C@]1(C)O)[C@H]23`, for which the TGI in the experiment with NCI/ADR-RES ovarian, in the experiment with HS 578T breast and with MCF7 breast was above 100 µM throughout.

In the case of `O=C(CCCCCCC(=O)Nc1ccc2c(c1)/C(=C/c1ccc[nH]1)C(=O)N2)NO`, the values for the GI50 in the experiment on NCI/ADR-RES ovarian, in the experiment with HS 578T breast and with MCF7 breast were 3.86 µM, 1.01 µM and 0.437 µM, respectively. Moreover, the TGI was above 100 µM in the experiment on NCI/ADR-RES ovarian, above 100 µM with HS 578T breast and above 69.6 µM in the experiment on MCF7 breast.

Consider `O=C(NCP(=O)(O)O)c1cccnc1`, for which the TGI in the experiment with NCI/ADR-RES ovarian and in the experiment on MCF7 breast was above 100 µM throughout.

Consider `S=C(Nc1ccccc1)N(Cc1ccccc1)c1ccccc1`, for which the TGI in the experiment on NCI/ADR-RES ovarian, in the experiment with HS 578T breast and with MCF7 breast was above 100 µM in each case.

On to `COc1cc([N+](=O)[O-])c(OC)cc1-c1nc2sc(Cl)cn2c1/C=N/NC(=N)N/N=C/c1c(-c2cc(OC)c([N+](=O)[O-])cc2OC)nc2sc(Cl)cn12`, for which, in the experiment on NCI/ADR-RES ovarian, the GI50 is above 100 µM and the TGI was above 100 µM.
